In the kinase profiling compilation of Christmann-Franck et al. (2016):

Columns and labels:
Assay in all cases: radiometric filter-binding kinase assay, Kinase HotSpot
Details in all cases: compound 0.5 µM; ATP 10 µM
[1] = biological target: CAMKK2 (human) (UniProt Q96RR4)
[2] = biological target: AURKB (human) (UniProt Q96GD4)
[3] = biological target: DYRK4 (human) (UniProt Q9NR20)
[4] = biological target: PAK7 (human) (UniProt Q9P286)
[5] = biological target: PNCK (human) (UniProt Q6P2M8)
[6] = biological target: LRRK2 (human) (UniProt Q5S007)
[7] = biological target: EPHA4 (human) (UniProt P54764)
[8] = biological target: ACVR1B (human) (UniProt P36896)
[9] = biological target: SRPK3 (human) (UniProt Q9UPE1)
[10] = biological target: PAK1 (human) (UniProt Q13153)
[11] = biological target: STK38 (human) (UniProt Q15208)
[12] = biological target: STK33 (human) (UniProt Q9BYT3)
STK33 (human), sequence (Q9BYT3 whole entry, looked up): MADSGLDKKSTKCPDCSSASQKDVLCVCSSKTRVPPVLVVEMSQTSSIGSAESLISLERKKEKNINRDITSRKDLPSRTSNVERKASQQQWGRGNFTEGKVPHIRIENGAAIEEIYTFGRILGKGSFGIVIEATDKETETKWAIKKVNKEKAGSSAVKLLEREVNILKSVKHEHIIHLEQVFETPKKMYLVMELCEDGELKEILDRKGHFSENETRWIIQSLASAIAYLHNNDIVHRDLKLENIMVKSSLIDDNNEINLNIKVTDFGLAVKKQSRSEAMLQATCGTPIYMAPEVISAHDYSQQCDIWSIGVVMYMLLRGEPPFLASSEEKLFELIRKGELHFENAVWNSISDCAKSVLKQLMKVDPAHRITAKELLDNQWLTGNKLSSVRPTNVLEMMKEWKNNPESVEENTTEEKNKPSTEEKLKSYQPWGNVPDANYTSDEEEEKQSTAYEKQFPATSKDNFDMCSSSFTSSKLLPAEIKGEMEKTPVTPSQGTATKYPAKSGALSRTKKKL

[13] = biological target: MST1R (human) (UniProt Q04912)
[14] = biological target: CDK6 CCND3 (human) (UniProt P30281+Q00534)
CDK6 CCND3 (human), sequence (P30281 whole entry, looked up): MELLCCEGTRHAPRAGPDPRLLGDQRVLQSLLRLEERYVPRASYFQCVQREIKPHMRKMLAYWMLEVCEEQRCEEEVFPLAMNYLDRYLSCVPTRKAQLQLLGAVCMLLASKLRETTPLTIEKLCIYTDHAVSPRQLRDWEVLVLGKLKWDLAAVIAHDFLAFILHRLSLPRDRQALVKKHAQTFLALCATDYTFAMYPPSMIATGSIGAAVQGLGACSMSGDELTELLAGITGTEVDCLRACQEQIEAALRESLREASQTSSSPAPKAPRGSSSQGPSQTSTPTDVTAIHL
CDK6 CCND3 (human), sequence (Q00534 whole entry, looked up): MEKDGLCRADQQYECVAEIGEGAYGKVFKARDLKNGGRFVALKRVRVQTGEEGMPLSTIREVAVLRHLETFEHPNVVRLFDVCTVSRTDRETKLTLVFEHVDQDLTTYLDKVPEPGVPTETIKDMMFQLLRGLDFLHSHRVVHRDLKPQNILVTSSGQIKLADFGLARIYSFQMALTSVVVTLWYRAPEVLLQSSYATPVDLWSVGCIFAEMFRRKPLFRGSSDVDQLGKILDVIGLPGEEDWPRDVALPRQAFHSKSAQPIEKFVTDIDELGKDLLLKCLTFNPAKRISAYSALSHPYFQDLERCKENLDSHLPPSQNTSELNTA

[15] = biological target: EGFR (human) (UniProt P00533)
[16] = biological target: DYRK1B (human) (UniProt Q9Y463)
[17] = biological target: DMPK (human) (UniProt Q09013)
[18] = biological target: AXL (human) (UniProt P30530)
[19] = biological target: ULK3 (human) (UniProt Q6PHR2)
[20] = biological target: PLK2 (human) (UniProt Q9NYY3)
[21] = biological target: CLK2 (human) (UniProt P49760)
[22] = biological target: CAMK1G (human) (UniProt Q96NX5)
[23] = biological target: TLK2 (human) (UniProt Q86UE8)
TLK2 (human), sequence (Q86UE8 whole entry, looked up): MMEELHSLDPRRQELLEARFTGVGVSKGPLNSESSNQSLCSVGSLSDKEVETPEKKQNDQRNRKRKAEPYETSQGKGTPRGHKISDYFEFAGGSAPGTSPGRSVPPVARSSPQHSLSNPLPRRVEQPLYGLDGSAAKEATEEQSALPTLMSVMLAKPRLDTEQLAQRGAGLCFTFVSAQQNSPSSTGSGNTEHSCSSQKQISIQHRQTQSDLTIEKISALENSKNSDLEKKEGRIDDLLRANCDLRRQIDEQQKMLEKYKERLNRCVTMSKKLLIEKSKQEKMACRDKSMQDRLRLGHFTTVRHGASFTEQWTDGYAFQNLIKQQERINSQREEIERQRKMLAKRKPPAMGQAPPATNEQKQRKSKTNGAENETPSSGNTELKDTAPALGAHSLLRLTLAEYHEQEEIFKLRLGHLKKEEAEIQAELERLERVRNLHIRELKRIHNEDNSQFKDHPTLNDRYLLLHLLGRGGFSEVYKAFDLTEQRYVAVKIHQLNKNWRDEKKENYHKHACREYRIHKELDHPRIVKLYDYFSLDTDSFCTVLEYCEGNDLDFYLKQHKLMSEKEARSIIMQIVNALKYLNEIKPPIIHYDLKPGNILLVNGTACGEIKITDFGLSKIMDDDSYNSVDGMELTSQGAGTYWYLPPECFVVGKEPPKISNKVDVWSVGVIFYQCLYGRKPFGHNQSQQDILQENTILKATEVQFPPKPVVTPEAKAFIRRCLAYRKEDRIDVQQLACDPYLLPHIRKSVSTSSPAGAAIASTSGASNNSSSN

[24] = biological target: BRAF (human) (UniProt P15056)
[25] = biological target: MAPKAPK3 (human) (UniProt Q16644)
[26] = biological target: MYO3B (human) (UniProt Q8WXR4)
[27] = biological target: LCK (human) (UniProt P06239)
[28] = biological target: ALK (human) (UniProt Q9UM73)
[29] = biological target: EPHA6 (human) (UniProt Q9UF33)
[30] = biological target: PHKG1 (human) (UniProt Q16816)
PHKG1 (human), sequence (Q16816 whole entry, looked up): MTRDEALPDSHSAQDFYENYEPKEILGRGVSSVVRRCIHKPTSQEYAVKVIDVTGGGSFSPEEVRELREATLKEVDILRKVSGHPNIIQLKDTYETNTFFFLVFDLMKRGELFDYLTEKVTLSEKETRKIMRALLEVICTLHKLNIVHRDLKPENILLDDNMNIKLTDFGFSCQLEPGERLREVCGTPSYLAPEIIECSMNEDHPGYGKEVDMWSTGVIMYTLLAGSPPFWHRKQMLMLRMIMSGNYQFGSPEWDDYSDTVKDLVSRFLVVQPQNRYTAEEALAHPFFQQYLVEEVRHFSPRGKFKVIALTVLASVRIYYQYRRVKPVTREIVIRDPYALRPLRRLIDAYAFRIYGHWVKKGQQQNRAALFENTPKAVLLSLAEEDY

[31] = biological target: PDPK1 (human) (UniProt O15530)
[32] = biological target: CHEK2 (human) (UniProt O96017)
[33] = biological target: MYLK2 (human) (UniProt Q9H1R3)
[34] = biological target: CDK6 CCND1 (human) (UniProt Q00534+P24385)
CDK6 CCND1 (human), sequence (P24385 whole entry, looked up): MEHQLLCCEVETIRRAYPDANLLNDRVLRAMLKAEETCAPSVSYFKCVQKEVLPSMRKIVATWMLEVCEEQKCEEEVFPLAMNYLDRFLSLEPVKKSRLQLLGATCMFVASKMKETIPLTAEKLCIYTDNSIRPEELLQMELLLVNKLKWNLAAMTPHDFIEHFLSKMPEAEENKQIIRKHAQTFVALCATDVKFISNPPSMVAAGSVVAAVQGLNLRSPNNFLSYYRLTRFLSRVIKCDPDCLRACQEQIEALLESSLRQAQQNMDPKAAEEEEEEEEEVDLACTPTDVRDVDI
CDK6 CCND1 (human), sequence (Q00534 whole entry, looked up): as the sequence (Q00534 whole entry, looked up) above

[35] = biological target: NEK4 (human) (UniProt P51957)
NEK4 (human), sequence (P51957 whole entry, looked up): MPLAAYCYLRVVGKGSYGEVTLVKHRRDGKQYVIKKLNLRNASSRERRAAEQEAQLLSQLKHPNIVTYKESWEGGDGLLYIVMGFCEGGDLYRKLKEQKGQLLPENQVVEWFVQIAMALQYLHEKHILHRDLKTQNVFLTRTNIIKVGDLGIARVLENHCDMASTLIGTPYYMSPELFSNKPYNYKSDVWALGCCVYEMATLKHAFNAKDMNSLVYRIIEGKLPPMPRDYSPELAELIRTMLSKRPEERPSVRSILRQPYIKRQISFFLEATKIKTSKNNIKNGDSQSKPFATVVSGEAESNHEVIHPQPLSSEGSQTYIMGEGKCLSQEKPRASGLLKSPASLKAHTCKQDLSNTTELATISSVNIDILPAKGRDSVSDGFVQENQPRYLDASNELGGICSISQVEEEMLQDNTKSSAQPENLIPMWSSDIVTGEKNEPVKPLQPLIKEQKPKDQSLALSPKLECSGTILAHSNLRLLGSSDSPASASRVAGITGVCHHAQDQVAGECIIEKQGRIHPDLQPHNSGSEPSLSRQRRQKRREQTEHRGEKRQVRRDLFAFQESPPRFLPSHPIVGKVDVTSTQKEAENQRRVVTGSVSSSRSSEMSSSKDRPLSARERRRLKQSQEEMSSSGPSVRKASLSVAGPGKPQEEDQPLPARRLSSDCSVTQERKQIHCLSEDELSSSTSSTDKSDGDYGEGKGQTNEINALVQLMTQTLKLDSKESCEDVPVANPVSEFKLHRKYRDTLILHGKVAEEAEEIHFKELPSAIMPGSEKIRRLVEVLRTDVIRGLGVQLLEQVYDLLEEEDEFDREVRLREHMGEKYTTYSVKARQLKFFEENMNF

[36] = biological target: HCK (human) (UniProt P08631)
HCK (human), sequence (P08631 whole entry, looked up): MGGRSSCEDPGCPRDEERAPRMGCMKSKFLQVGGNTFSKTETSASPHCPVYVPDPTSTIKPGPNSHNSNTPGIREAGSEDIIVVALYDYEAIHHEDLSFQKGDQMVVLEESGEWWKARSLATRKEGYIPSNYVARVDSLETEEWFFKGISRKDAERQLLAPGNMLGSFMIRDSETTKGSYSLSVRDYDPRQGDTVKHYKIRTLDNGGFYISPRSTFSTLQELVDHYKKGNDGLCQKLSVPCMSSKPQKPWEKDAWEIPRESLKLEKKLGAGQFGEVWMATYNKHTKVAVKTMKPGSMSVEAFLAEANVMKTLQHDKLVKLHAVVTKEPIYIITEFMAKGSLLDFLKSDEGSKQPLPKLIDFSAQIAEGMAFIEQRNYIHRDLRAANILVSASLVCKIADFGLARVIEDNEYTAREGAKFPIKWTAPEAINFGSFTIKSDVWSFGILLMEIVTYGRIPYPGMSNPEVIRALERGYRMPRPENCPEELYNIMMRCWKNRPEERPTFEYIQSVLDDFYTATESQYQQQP

[37] = biological target: PLK3 (human) (UniProt Q9H4B4)
[38] = biological target: TAOK2 (human) (UniProt Q9UL54)
[39] = biological target: IKBKE (human) (UniProt Q14164)
[40] = biological target: TXK (human) (UniProt P42681)
TXK (human), sequence (P42681 whole entry, looked up): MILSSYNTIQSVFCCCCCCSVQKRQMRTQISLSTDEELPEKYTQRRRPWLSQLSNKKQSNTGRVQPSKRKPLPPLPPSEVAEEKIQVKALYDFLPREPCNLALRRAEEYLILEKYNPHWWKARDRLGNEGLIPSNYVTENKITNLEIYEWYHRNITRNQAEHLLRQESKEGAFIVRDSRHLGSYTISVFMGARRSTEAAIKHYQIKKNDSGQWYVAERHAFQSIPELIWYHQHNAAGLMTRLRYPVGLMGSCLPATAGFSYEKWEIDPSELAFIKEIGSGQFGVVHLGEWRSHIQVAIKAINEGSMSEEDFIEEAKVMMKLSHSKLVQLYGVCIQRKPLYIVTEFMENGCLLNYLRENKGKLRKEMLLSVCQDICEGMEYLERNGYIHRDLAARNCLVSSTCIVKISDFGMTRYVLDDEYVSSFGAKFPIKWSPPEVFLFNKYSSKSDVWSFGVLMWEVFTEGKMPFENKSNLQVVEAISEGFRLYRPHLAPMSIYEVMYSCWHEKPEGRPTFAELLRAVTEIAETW

[41] = biological target: SIK2 (human) (UniProt Q9H0K1)
[42] = biological target: PRKACG (human) (UniProt P22612)

PNCK (human), sequence (Q6P2M8 whole entry, looked up): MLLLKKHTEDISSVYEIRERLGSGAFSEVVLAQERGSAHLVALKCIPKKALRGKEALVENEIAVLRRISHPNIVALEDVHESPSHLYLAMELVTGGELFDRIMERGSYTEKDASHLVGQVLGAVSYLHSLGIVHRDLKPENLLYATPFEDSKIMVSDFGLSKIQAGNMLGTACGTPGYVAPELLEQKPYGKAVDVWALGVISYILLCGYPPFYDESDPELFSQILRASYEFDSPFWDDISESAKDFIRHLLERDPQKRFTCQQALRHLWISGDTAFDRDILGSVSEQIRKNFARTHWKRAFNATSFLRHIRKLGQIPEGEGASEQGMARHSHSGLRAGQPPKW

SMILES: Nc1ncnc2c1cnn2-c1ccccc1
- residual activity [1]: 86.8%
- residual activity [2]: 99.2%
- residual activity [3]: 98.4%
- residual activity [4]: 97%
- residual activity [5]: 97.5%
- residual activity [6]: 99.3%
- residual activity [7]: 96.2%
- residual activity [8]: 99.4%
- residual activity [9]: 96.4%
- residual activity [10]: 94.2%
- residual activity [11]: 98.6%
- residual activity [12]: 96.1%
- residual activity [13]: 100%
- residual activity [14]: 92.2%
- residual activity [15]: 73%
- residual activity [16]: 93%
- residual activity [17]: 106%
- residual activity [18]: 110%
- residual activity [19]: 98.9%
- residual activity [20]: 99.2%
- residual activity [21]: 91.4%
- residual activity [22]: 102%
- residual activity [23]: 110%
- residual activity [24]: 93.6%
- residual activity [25]: 96.6%
- residual activity [26]: 93.4%
- residual activity [27]: 95.5%
- residual activity [28]: 90.9%
- residual activity [29]: 83.2%
- residual activity [30]: 94.2%
- residual activity [31]: 104%
- residual activity [32]: 95.5%
- residual activity [33]: 99.9%
- residual activity [34]: 94.7%
- residual activity [35]: 98.7%
- residual activity [36]: 92.4%
- residual activity [37]: 94.6%
- residual activity [38]: 93%
- residual activity [39]: 100%
- residual activity [40]: 94.8%
- residual activity [41]: 99.8%

SMILES: O=c1cc(N2CCOCC2)oc2c(-c3ccccc3)cccc12
- residual activity [1]: 83.3%
- residual activity [2]: 99.6%
- residual activity [3]: 91.9%
- residual activity [4]: 104%
- residual activity [5]: 98.4%
- residual activity [6]: 96.9%
- residual activity [7]: 99.2%
- residual activity [8]: 101%
- residual activity [9]: 95.5%
- residual activity [10]: 97.8%
- residual activity [11]: 103%
- residual activity [12]: 92.1%
- residual activity [13]: 109%
- residual activity [14]: 101%
- residual activity [16]: 96.8%
- residual activity [17]: 99.4%
- residual activity [18]: 110%
- residual activity [19]: 103%
- residual activity [20]: 98.9%
- residual activity [21]: 100%
- residual activity [22]: 93.8%
- residual activity [23]: 83.2%
- residual activity [24]: 95.9%
- residual activity [25]: 101%
- residual activity [26]: 104%
- residual activity [28]: 92.4%
- residual activity [29]: 87%
- residual activity [30]: 90.1%
- residual activity [31]: 104%
- residual activity [32]: 93.7%
- residual activity [33]: 102%
- residual activity [34]: 97.9%
- residual activity [35]: 95.1%
- residual activity [36]: 98.3%
- residual activity [37]: 71.9%
- residual activity [39]: 100%
- residual activity [40]: 93.6%
- residual activity [41]: 96.8%

SMILES: N#Cc1c(NC(=O)c2cccc3ccccc23)sc2c1CCCC2
- residual activity [1]: 80.4%
- residual activity [2]: 103%
- residual activity [3]: 98.1%
- residual activity [4]: 103%
- residual activity [5]: 104%
- residual activity [6]: 100%
- residual activity [7]: 99%
- residual activity [8]: 96.5%
- residual activity [9]: 95.7%
- residual activity [10]: 97.4%
- residual activity [11]: 97.7%
- residual activity [12]: 93%
- residual activity [13]: 92.5%
- residual activity [14]: 99%
- residual activity [16]: 101%
- residual activity [17]: 109%
- residual activity [18]: 106%
- residual activity [20]: 101%
- residual activity [21]: 101%
- residual activity [22]: 97.7%
- residual activity [23]: 98.9%
- residual activity [24]: 95.2%
- residual activity [25]: 102%
- residual activity [26]: 107%
- residual activity [27]: 102%
- residual activity [28]: 96.4%
- residual activity [29]: 93.4%
- residual activity [30]: 93.8%
- residual activity [31]: 92.1%
- residual activity [32]: 98.5%
- residual activity [33]: 101%
- residual activity [34]: 94%
- residual activity [35]: 94.6%
- residual activity [36]: 96.5%
- residual activity [37]: 99.6%
- residual activity [38]: 99.8%
- residual activity [39]: 94.3%
- residual activity [40]: 97%
- residual activity [41]: 101%
- residual activity [42]: 111%

SMILES: COc1cc2c(N3CCN(C(=O)Nc4ccc(OC(C)C)cc4)CC3)ncnc2cc1OCCCN1CCCCC1
- residual activity [1]: 101%
- residual activity [2]: 89.6%
- residual activity [3]: 101%
- residual activity [4]: 87.5%
- residual activity [5]: 97.7%
- residual activity [6]: 123%
- residual activity [7]: 96.4%
- residual activity [8]: 101%
- residual activity [9]: 102%
- residual activity [10]: 107%
- residual activity [11]: 99.1%
- residual activity [12]: 91.1%
- residual activity [13]: 99.2%
- residual activity [14]: 92.7%
- residual activity [16]: 97.9%
- residual activity [17]: 101%
- residual activity [18]: 99%
- residual activity [19]: 101%
- residual activity [20]: 99.8%
- residual activity [21]: 80.7%
- residual activity [22]: 94.6%
- residual activity [23]: 96.2%
- residual activity [25]: 103%
- residual activity [26]: 88.5%
- residual activity [27]: 87.1%
- residual activity [28]: 103%
- residual activity [29]: 103%
- residual activity [30]: 92.6%
- residual activity [31]: 96.8%
- residual activity [32]: 100%
- residual activity [33]: 101%
- residual activity [34]: 94.6%
- residual activity [35]: 90.3%
- residual activity [36]: 93.2%
- residual activity [37]: 99.3%
- residual activity [38]: 102%
- residual activity [39]: 96.2%
- residual activity [40]: 105%
- residual activity [41]: 98.9%
- residual activity [42]: 108%

SMILES: CN[C@@H]1C[C@H]2O[C@@](C)([C@@H]1OC)n1c3ccccc3c3c4c(c5c6ccccc6n2c5c31)C(=O)NC4
- residual activity [11]: 10%
- residual activity [12]: 10.7%
- residual activity [17]: 4.83%
- residual activity [19]: 1.82%
- residual activity [28]: 0.859%
- residual activity [31]: 4.41%
- residual activity [35]: 46.8%
- residual activity [36]: 3.26%
